Data on 26 compounds can be found in patent publication US10273224B2, “Substituted pyrimidine compounds, compositions and medicinal applications thereof” (JUBILANT BIOSYS LIMITED, priority 2013, dated 2019).

Counter-ions that a name gives are not always drawn.

T1 sequence (P00533 25-1210 T790M/L858R): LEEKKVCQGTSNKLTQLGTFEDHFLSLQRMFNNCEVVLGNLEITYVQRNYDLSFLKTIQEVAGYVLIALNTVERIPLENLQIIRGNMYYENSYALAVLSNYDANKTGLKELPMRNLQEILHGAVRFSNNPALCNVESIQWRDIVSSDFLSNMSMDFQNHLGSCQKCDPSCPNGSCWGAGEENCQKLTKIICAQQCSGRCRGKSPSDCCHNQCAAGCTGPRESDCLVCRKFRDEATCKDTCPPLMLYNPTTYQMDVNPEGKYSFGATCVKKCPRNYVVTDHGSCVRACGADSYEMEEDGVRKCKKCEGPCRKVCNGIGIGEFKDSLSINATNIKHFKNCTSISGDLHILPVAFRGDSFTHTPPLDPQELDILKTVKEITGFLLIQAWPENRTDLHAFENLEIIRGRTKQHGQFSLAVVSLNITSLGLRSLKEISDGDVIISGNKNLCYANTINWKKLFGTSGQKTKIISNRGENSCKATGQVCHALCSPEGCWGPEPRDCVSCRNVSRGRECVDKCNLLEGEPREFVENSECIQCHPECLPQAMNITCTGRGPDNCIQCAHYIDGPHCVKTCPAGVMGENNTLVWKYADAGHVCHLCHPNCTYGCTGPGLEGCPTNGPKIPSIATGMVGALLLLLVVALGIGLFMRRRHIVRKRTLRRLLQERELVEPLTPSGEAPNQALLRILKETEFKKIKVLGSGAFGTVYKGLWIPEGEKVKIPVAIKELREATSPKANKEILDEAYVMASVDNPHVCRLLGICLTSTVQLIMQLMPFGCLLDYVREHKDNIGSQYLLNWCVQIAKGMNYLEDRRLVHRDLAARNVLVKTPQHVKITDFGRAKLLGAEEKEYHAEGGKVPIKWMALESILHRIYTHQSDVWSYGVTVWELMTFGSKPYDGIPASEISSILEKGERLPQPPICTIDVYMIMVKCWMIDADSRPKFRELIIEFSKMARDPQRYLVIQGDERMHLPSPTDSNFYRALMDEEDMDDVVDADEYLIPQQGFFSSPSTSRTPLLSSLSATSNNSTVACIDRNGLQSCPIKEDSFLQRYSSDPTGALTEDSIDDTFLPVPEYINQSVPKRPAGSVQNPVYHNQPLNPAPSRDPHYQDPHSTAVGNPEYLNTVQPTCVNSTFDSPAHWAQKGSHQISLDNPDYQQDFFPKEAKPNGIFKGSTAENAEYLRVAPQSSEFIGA

This assay addresses T1, EGFR (L858R & T790M) (Homo sapiens, UniProt P00533, L858R/T790M).
T1 construct: GST; purchased Proqinase
In words: EGFR (L858R & T790M) inhibition assay, HTRF method. The following applies: biochemical HTRF; EGFR (T790M/L858R) 2.5 nM, ATP 5 μM, 60 min room temperature. How it is done:
Example 25: Biological Activity: EGFR T790M Assay Protocol
The objective of the experiment is to find the IC50 for the compounds using HTRF method.
Reagents for Enzyme Assay:
1. Enzyme Assay Buffer: 60 mM HEPES (pH 7.4), 50 mM NaCl, 20 mM MgCl2, 5 mM MnCl2, filter using 0.2 µm pore size, store at 4° C.
Supplements (add fresh to the enzyme buffer): Make 1M DTT stock, 5% BSA stock and 0.1M Na3OV4 stored at 4° C. Enzyme assay buffer 50 ml, 1 M DTT 100 μl, 5% BSA 500 μl, 0.1M Na3OV4 50 μl.
2. GST-hEGFR (L858R), active: EGFR (T790M/L858R), active (Proqinase), 3.6 μM stock; 2.5 nM in final assay.
3. Gastrin Precusor-Biotinylated: Gastrin precursor (Tyr87) biotinylated peptide (EEAY*GWM), Cell Signaling Tech 1310, Lot-7, Want final 0.5 μM in assay
4. ATP: 10 mM stock in 100 μl Enzyme assay buffer pH 7.4 prepared freshly, want 5 μM in final assay.
5. Test compounds: Dissolve powders in 100% DMSO to a final stock concentration of 10 mM (volume in μL to add for 10 mM=mg powder×10^5/MW). Final comp concentration in the assay plate is starting at 10 μM.
1. HTRF buffer: 50 mM Tris-HCl, pH-7.5, 100 mM NaCl, 0.1% BSA, 0.05% Tween20, 0.5 mM EDTA, filter using 0.2 µm pore size, store at 4° C.
Phycolink® Streptavidin-Allophycocyanin (SA-APC) Prozyme, Cat. #PJ25S, Lot #896 085, 2.06 mg/mL, APC concentration is 11.6 μM, streptavidin concentration is 15.5 μM. Want 12 nM final in assay (based on streptavidin concentration).
2. Europium-W1024-PT-66 Anti Phospho Tyrosine Antibody: Perkin Elmer (AD0068), monoclonal IgG1 that recognizes phospho tyrosine peptide 100 μg/ml stock. Want 0.1 nM final in assay.
• 1. Make the compound dilution by TECAN as per the above scheme. • 2. Add 16 μl of diluted compound to the assay plate by using TECAN • 3. Add 10 μl of enzyme mix to each well except mins. • 4. Add 20 μl of substrate and ATP mix into each well of the assay plate manually. • 5. Incubate the plate at room temperature for 60 min with shaking. • 6. Meanwhile prepare the HTRF mix and add 75 μl to the HTRF plate. • 7. When the incubation is over, transfer 10 μl of the reaction mixture to the HTRF assay plate and incubate for 30 min at room temperature with shaking. • 8. Take the reading in Pherastar (ext 337 nm, em 665 & 620 nm). • 9. Analyze the results using Graphpad prism after calculation the z factor, signal window and % inhibition to get the IC50.
Compounds having IC50<10 nM are designated as “A”; 10-100 nM are designated as “B”; and >100 nM as “C”.
A general note: TR-FRET usually uses a lanthanide donor and a delayed reading to cut background.
Regarding `CN1CCC(n2cc(Nc3ncc(Cl)c(Nc4cccc(NC(=O)C=C5CCOCC5)c4)n3)cn2)CC1` [Compound I-26, N-(3-((5-chloro-2-((1-(1-methylpiperidin-4-yl)-1H-pyrazol-4-yl)amino)pyrimidin-4-yl)amino)phenyl)-2-(dihydro-2H-pyran-4(3H)-ylidene)acetamide], the IC50 is greater than 100 nM.

As to `CN1CCC(n2cc(Nc3ncc(Cl)c(Nc4ccc(F)c(NC(=O)C=C5CCCCC5)c4)n3)cn2)CC1` [Compound I-27, N-(5-((5-chloro-2-((1-(1-methylpiperidin-4-yl)-1H-pyrazol-4-yl)amino)pyrimidin-4-yl)amino)-2-fluorophenyl)-2-cyclohexylideneacetamide], the IC50 was greater than 100 nM.

For `CN1CCC(n2cc(Nc3ncc(Cl)c(Nc4cccc(NC(=O)C=C5CCCCC5)c4)n3)cn2)CC1` [Compound I-28, N-(3-((5-chloro-2-((1-(1-methylpiperidin-4-yl)-1H-pyrazol-4-yl)amino)pyrimidin-4-yl)amino)phenyl)-2-cyclohexylideneacetamide], the IC50 is greater than 100 nM.

For the compound `CN1CCC(n2cc(Nc3ncc(Cl)c(Nc4cccc(NC(=O)C=C5CCC5)c4)n3)cn2)CC1` [Compound I-29, N-(3-((5-chloro-2-((1-(1-methylpiperidin-4-yl)-1H-pyrazol-4-yl)amino)pyrimidin-4-yl)amino)phenyl)-2-cyclobutylideneacetamide], the half-inhibitory concentration (IC50) is greater than 100 nM.

For the compound `CN1CCC(n2cc(Nc3ncc(Cl)c(Nc4cccc(NC(=O)C=C5CCCC5)c4)n3)cn2)CC1` [Compound I-30, N-(3-((5-chloro-2-((1-(1-methylpiperidin-4-yl)-1H-pyrazol-4-yl)amino)pyrimidin-4-yl)amino)phenyl)-2-cyclopentylideneacetamide], the IC50 was greater than 100 nM.

Regarding `C=CC(=O)Nc1cccc(Nc2nc(Nc3cnn(C4COC4)c3)ncc2Cl)c1` [Compound I-31, N-(3-((5-chloro-2-((1-(oxetan-3-yl)-1H-pyrazol-4-yl)amino)pyrimidin-4-yl)amino)phenyl)acrylamide], the IC50 was in the range of 10 to 100 nM.

`C#CC(=O)Nc1cccc(Nc2nc(Nc3cnn(C)c3)ncc2Cl)c1` [Compound I-32, N-(3-((5-chloro-2-((1-methyl-1H-pyrazol-4-yl)amino)pyrimidin-4-yl)amino)phenyl)propiolamide]: the half-inhibitory concentration (IC50) was 10 to 100 nM.

As for `C=C(F)C(=O)Nc1cccc(Nc2nc(Nc3cnn(C)c3)ncc2Cl)c1` [Compound I-33, N-(3-((5-chloro-2-((1-methyl-1H-pyrazol-4-yl)amino)pyrimidin-4-yl)amino)phenyl)-2-fluoroacrylamide], the IC50 was greater than 100 nM.

Consider `C=CC(=O)Nc1cccc(Nc2nc(Nc3cn(C)nc3C)ncc2Cl)c1` [Compound I-34, N-(3-((5-chloro-2-((1,3-dimethyl-1H-pyrazol-4-yl)amino)pyrimidin-4-yl)amino)phenyl)acrylamide], for which the IC50 was less than 10 nM.

`C=CC(=O)Nc1cc(Cl)cc(Nc2nc(Nc3cnn(C)c3)ncc2Cl)c1` [Compound I-35, N-(3-chloro-5-((5-chloro-2-((1-methyl-1H-pyrazol-4-yl)amino)pyrimidin-4-yl)amino)phenyl)acrylamide]: the IC50 is less than 10 nM.

As for `C=CC(=O)Nc1cccc(Nc2nc(Nc3cnn(C4CCC(O)C4)c3)ncc2Cl)c1` (centres unmarked) [Compound I-36, N-(3-((5-chloro-2-((1-(3-hydroxycyclopentyl)-1H-pyrazol-4-yl)amino)pyrimidin-4-yl)amino)phenyl)acrylamide], the IC50 was in the range of 10 to 100 nM.

On to `C=CC(=O)Nc1cccc(Nc2nc(Nc3cnn(C4CCC(O)C4)c3)ncc2F)c1` (centres unmarked) [Compound I-37, N-(3-((5-fluoro-2-((1-(3-hydroxycyclopentyl)-1H-pyrazol-4-yl)amino)pyrimidin-4-yl)amino)phenyl)acrylamide], for which the IC50 is greater than 100 nM.

As for `C=CC(=O)Nc1cccc(Nc2nc(Nc3cnn(C4CCCC(O)C4)c3)ncc2Cl)c1` (centres unmarked) [Compound I-38, N-(3-((5-chloro-2-((1-(3-hydroxycyclohexyl)-1H-pyrazol-4-yl)amino)pyrimidin-4-yl)amino)phenyl)acrylamide], the IC50 was greater than 100 nM.

For `C=CC(=O)Nc1ccc(F)c(Nc2nc(Nc3cnn(C)c3)ncc2Cl)c1` [Compound I-39, N-(3-((5-chloro-2-((1-methyl-1H-pyrazol-4-yl)amino)pyrimidin-4-yl)amino)-4-fluorophenyl)acrylamide], the IC50 was less than 10 nM.

For the compound `C=CC(=O)Nc1cccc(Nc2nc(Nc3ncc(N4CCN(C)CC4)s3)ncc2Cl)c1` [Compound I-40, N-(3-((5-chloro-2-((5-(4-methylpiperazin-1-yl)thiazol-2-yl)amino)pyrimidin-4-yl)amino)phenyl)acrylamide], the IC50 fell in the range of 10 to 100 nM.

For `C=CC(=O)Nc1cccc(Nc2nc(Nc3nnc(N4CCN(C)CC4)s3)ncc2Cl)c1` [Compound I-41, N-(3-((5-chloro-2-((5-(4-methylpiperazin-1-yl)-1,3,4-thiadiazol-2-yl)amino)pyrimidin-4-yl)amino)phenyl)acrylamide], the half-inhibitory concentration (IC50) lay within 10 to 100 nM.

On to `C=CC(=O)Nc1cccc(Nc2nc(Nc3cc(CN4CCC4)n(C)n3)ncc2Cl)c1` [Compound I-42, N-(3-((2-((5-(azetidin-1-ylmethyl)-1-methyl-1H-pyrazol-3-yl)amino)-5-chloropyrimidin-4-yl)amino)phenyl)acrylamide, acetate salt], for which the half-inhibitory concentration (IC50) is greater than 100 nM.

With `C=CC(=O)Nc1cccc(Nc2nc(Nc3cnn(C4CCNC(=O)C4)c3)ncc2Cl)c1` (centres unmarked) [Compound I-43, N-(3-((5-chloro-2-((1-(2-oxopiperidin-4-yl)-1H-pyrazol-4-yl)amino)pyrimidin-4-yl)amino)phenyl)acrylamide], the IC50 lay within 10 to 100 nM.

In the case of `C=CC(=O)Nc1cccc(Nc2nc(Nc3nnc(C(F)(F)F)s3)ncc2Cl)c1` [Compound I-44, N-(3-((5-chloro-2-((5-(trifluoromethyl)-1,3,4-thiadiazol-2-yl)amino)pyrimidin-4-yl)amino)phenyl)acrylamide], the IC50 was greater than 100 nM.

For `C=CC(=O)Nc1cccc(Nc2nc(Nc3cnn(C4CCOCC4)c3)ncc2Cl)c1` [Compound I-45, N-(3-((5-chloro-2-((1-(tetrahydro-2H-pyran-4-yl)-1H-pyrazol-4-yl)amino)pyrimidin-4-yl)amino)phenyl)acrylamide], the IC50 lay within 10 to 100 nM.

Turning to `C=CC(=O)Nc1cccc(Nc2nc(Nc3cc(CN4CCOCC4)n(C)n3)ncc2Cl)c1` [Compound I-46, N-(3-((5-chloro-2-((1-methyl-5-(morpholinomethyl)-1H-pyrazol-3-yl)amino)pyrimidin-4-yl)amino)phenyl)acrylamide], the IC50 is greater than 100 nM.

With `C=CC(=O)Nc1cccc(Oc2nc(Nc3cnn(CCO)c3)ncc2Cl)c1` [Compound I-47, N-(3-((5-chloro-2-((1-(2-hydroxyethyl)-1H-pyrazol-4-yl)amino)pyrimidin-4-yl)oxy)phenyl)acrylamide], the IC50 is less than 10 nM.

As to `C=CC(=O)Nc1cccc(Nc2nc(Nc3cnn(C4CC5CCC(C4)N5C)c3)ncc2Cl)c1` (centres unmarked) [Compound I-48, N-(3-((5-chloro-2-((1-(8-methyl-8-azabicyclo[3.2.1]octan-3-yl)-1H-pyrazol-4-yl)amino)pyrimidin-4-yl)amino)phenyl)acrylamide], the IC50 lay within 10 to 100 nM.

In the case of `C=CC(=O)Nc1cccc(Nc2nc(Nc3cnn(C4CCOC4)c3)ncc2Cl)c1` (centres unmarked) [Compound I-49, N-(3-((5-chloro-2-((1-(tetrahydrofuran-3-yl)-1H-pyrazol-4-yl)amino)pyrimidin-4-yl)amino)phenyl)acrylamide], the IC50 is 10 to 100 nM.

Consider `CN1CCC(n2cc(Nc3ncc(F)c(Nc4cccc(NC(=O)C=C5CCCCC5)c4)n3)cn2)CC1` [Compound I-50, 2-cyclohexylidene-N-(3-((5-fluoro-2-((1-(1-methylpiperidin-4-yl)-1H-pyrazol-4-yl)amino)pyrimidin-4-yl)amino)phenyl)acetamide], for which the IC50 was greater than 100 nM.

Consider `C/C=C/C(=O)Nc1cccc(Nc2nc(Nc3cnn(C4CCN(C)CC4)c3)ncc2Cl)c1` [Compound I-51, (E)-N-(3-((5-chloro-2-((1-(1-methylpiperidin-4-yl)-1H-pyrazol-4-yl)amino)pyrimidin-4-yl)amino)phenyl)but-2-enamide], for which the IC50 is greater than 100 nM.

As usually defined, the IC50 is the concentration that inhibits the measured activity by half.
